Measured values as given in patent publication US20230416225A1, “DIAMINOPYRIMIDINE CARBOXAMIDE INHIBITORS OF HPK1” (MERCK SHARP & DOHME LLC, priority 2020, published 2023).

Molecular target: T1, Human HPK1, catalytic domain (Homo sapiens, UniProt Q92918)
T1 construct: purchased Carna
T1 sequence (Q92918 1-346): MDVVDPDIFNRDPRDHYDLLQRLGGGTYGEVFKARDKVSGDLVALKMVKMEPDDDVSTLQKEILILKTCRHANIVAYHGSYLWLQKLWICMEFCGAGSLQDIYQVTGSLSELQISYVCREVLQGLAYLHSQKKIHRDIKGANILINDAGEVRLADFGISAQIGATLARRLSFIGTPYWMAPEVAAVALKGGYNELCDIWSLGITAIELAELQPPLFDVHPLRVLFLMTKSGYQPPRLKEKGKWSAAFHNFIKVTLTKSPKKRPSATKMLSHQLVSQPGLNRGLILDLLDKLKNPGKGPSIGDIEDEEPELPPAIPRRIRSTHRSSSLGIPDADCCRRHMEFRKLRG
Experiment: HPK1-SLP76 TR-FRET assay
Assay type: biochemical
Conditions: 75 pM HPK1, 10 uM ATP, 10 nM SLP76, 30 min compound pre-incubation

Row | Compound | IC50 [nM]
1 | COc1cc2c(cc1Nc1ncc(C(N)=O)c(Nc3cc(C)nn3CCO)n1)CN(C)CC2 [Example 7-90, 4-((1-(2-hydroxyethyl)-3-methyl-1H-pyrazol-5-yl)amino)-2-((6-methoxy-2-methyl-1,2,3,4-tetrahydroisoquinolin-7-yl)amino)pyrimidine-5-carboxamide] | 1.44
2 | COc1cc2c(cc1Nc1ncc(C(N)=O)c(Nc3cc(C)nn3Cc3ccccc3)n1)CN(C)CC2 [Example 7-91, 4-((1-benzyl-3-methyl-1H-pyrazol-5-yl)amino)-2-((6-methoxy-2-methyl-1,2,3,4-tetrahydroisoquinolin-7-yl)amino)pyrimidine-5-carboxamide] | 38.6
3 | COc1cc2c(cc1Nc1ncc(C(N)=O)c(Nc3cc(C)nn3-c3ccccc3)n1)CN(C)CC2 [Example 7-92, 2-((6-methoxy-2-methyl-1,2,3,4-tetrahydroisoquinolin-7-yl)amino)-4-((3-methyl-1-phenyl-1H-pyrazol-5-yl)amino)pyrimidine-5-carboxamide] | 10.9
4 | CCn1ncc(C)c1Nc1nc(Nc2cc3c(cc2OC)CCN(C)C3)ncc1C(N)=O [Example 7-93, 4-((1-ethyl-4-methyl-1H-pyrazol-5-yl)amino)-2-((6-methoxy-2-methyl-1,2,3,4-tetrahydroisoquinolin-7-yl)amino)pyrimidine-5-carboxamide] | 18.5
5 | COc1ccc(C(N)=O)cc1Nc1ncc(C(N)=O)c(Nc2ccccc2Br)n1 [Example 7-95, 4-[(2-bromophenyl)amino]-2-[(5-carbamoyl-2-methoxyphenyl)amino]pyrimidine-5-carboxamide] | 548
6 | NC(=O)c1cnc(Nc2cccc3c2OCC3)nc1Nc1ccccc1Br [Example 7-96, 4-[(2-bromophenyl)amino]-2-[(2,3-dihydro-1-benzofuran-7-yl)amino]pyrimidine-5-carboxamide] | 713
7 | COc1cc2c(cc1Nc1ncc(C(N)=O)c(Nc3ccccc3CN3CCOCC3)n1)CN(C)CC2 [Example 7-99, 2-[(6-methoxy-2-methyl-1,2,3,4-tetrahydroisoquinolin-7-yl)amino]-4-({2-[(morpholin-4-yl)methyl]phenyl}amino)pyrimi-dine-5-carboxamide] | 1.44
8 | N#CC1(c2ccc(Nc3ncc(C(N)=O)c(Nc4ccccc4Br)n3)cc2)CC1 [Example 7-100, 4-[(2-bromophenyl)amino]-2-{[4-(1-cyanocyclopropyl)phenyl]amino} pyrimidine-5-carboxamide] | 30
9 | NC(=O)c1cnc(Nc2ccc3c(c2)COC3=O)nc1Nc1ccccc1Br [Example 7-103, 4-[(2-bromopehnyl)amino]-2-[(1-oxo-1,3-dihydro-2-benzofuran-5-yl)amino]pyrimidine-5-carboxamide] | 188
10 | NC(=O)c1cnc(Nc2ccccc2)nc1Nc1ccccc1Br [Example 7-105, 4-[(2-bromophenyl)amino]-2-(phenylamino)pyrimidine-5-carboxamide] | 345
11 | NC(=O)c1cnc(Nc2ccc3c(c2)C(=O)OCC3)nc1Nc1ccccc1Br [Example 7-106, 4-[(2-bromophenyl)amino]-2-[(1-oxo-3,4-dihydro-1H-2-benzopyran-7-yl)amino]pyrimidine-5-carboxamide] | 63.8
12 | NC(=O)c1cnc(Nc2ccc3c(c2)COCC3)nc1Nc1ccccc1Br [Example 7-107, 4-[(2-bromophenyl)amino]-2-[(3,4-dihydro-1H-2-benzopyran-7-yl)amino]pyrimidine-5-carboxamide] | 55
13 | N#CC1(c2ccc(Nc3ncc(C(N)=O)c(Nc4ccccc4CO)n3)cc2)CC1 [Example 7-108, 2-{[4-(1-cyanocyclopropyl)phenyl]amino}-4-{[2-(hydroxymethyl)phenyl]amino}py-rimidine-5-carboxamide] | 4.17
14 | COc1cc(N2CCC(N3CCOCC3)CC2)ccc1Nc1ncc(C(N)=O)c(Nc2ccccc2Br)n1 [Example 7-116, 4-[(2-bromophenyl)amino]-2-({2-methoxy-4-[4-(morpholin-4-yl)piperidin-1-yl]phenyl}amino)pyrimidine-5-carboxamide] | 283
15 | COc1cc2c(cc1Nc1ncc(C(N)=O)c(Nc3ccccc3C(=O)Nc3ccccc3)n1)CN(C)CC2 [Example 7-117, 2-((6-methoxy-2-methyl-1,2,3,4-tetrahydroisoquinolin-7-yl)amino)-4-((2-(phenylcarbamoyl)phenyl)amino) pyrimidine-5-carboxamide] | 54.8
16 | COc1cc2c(cc1Nc1ncc(C(N)=O)c(Nc3ccccc3C(=O)NC3CC3)n1)CN(C)CC2 [Example 7-118, 4-((2-(cyclopropylcarbamoyl)phenyl)a-mino)-2-((6-methoxy-2-methyl-1,2,3,4-tetrahydroisoquinolin-7-yl)amino)pyrimidine-5-carboxamide] | 2.74
17 | COc1cc(C2CCCN2)ccc1Nc1ncc(C(N)=O)c(Nc2ccccc2C(F)(F)F)n1 (centres unmarked) [Example 8-1, 2-((2-Methoxy-4-(pyrrolidin-2-yl)phenyl)amino)-4-((2-(trifluoromethyl)phenyl)amino)pyrimidine-5-carboxamide] | 1.26
18 | COc1cc(C2CCNCC2)ccc1Nc1ncc(C(N)=O)c(Nc2ccccc2C(F)(F)F)n1 [Example 8-2, 2-((2-methoxy-4-(piperidin-4-yl)phenyl)amino)-4-((2-(trifluoromethyl)phenyl)amino)pyrimidine-5-carboxamide] | 11.7
19 | COc1cc(C2CCNC2)ccc1Nc1ncc(C(N)=O)c(Nc2ccccc2Br)n1 (centres unmarked) [Example 8-3, 4-((2-bromophenyl)amino)-2-((2-methoxy-4-(pyrrolidin-3-yl)phenyl)amino)pyrimidine-5-carboxamide] | 9.48
20 | COc1cc(C2CNC2)ccc1Nc1ncc(C(N)=O)c(Nc2ccccc2Br)n1 [Example 8-4, 2-((4-(azetidin-3-yl)-2-methoxyphenyl)amino)-4-((2-bromophenyl)amino)pyrimidine-5-carboxamide] | 13.9
21 | COc1cc2c(cc1Nc1ncc(C(N)=O)c(Nc3ccccc3Br)n1)CN(C1COC1)CC2 [Example 9-2, 4-[(2-bromophenyl)amino]-2-{[6-methoxy-2-(oxetan-3-yl)-1,2,3,4-tetrahydroisoquinolin-7-yl]amino}pyrimidine-5-carboxamide] | 1.42

These reach a lower IC50. Values come first.

Row | IC50 [nM] | Compound
22 | 0.88 | COC(=O)c1ccccc1Nc1nc(Nc2cc3c(cc2OC)CCN(C)C3)ncc1C(N)=O [Example 7-94, methyl 2-({5-carbamoyl-2-[(6-methoxy-2-methyl-1,2,3,4-tetrahydroisoquinolin-7-yl)amino]pyrimidin-4-yl}amino)benzoate]
23 | 0.23 | COc1cc2c(cc1Nc1ncc(C(N)=O)c(Nc3ccccc3C(O)(C(F)(F)F)C(F)(F)F)n1)CN(C)CC2 [Example 7-97, 4-{[2-(1,1,1,3,3,3-hexafluoro-2-hydroxypropan-2-yl)phenyl]amino}-2-[(6-methoxy-2-methyl-1,2,3,4-tetrahydroisoquinolin-7-yl)amino]pyrimidine-5-carboxamide]
24 | 0.07 | COc1cc2c(cc1Nc1ncc(C(N)=O)c(Nc3ccccc3CC(F)(F)F)n1)CN(C)CC2 [Example 7-98, 2-[(6-methoxy-2-methyl-1,2,3,4-tetrahydroisoquinolin-7-yl)amino]-4-{[2-(2,2,2-trifluoroethyl)phenyl]amino}pyri-midine-5-carboxamide]
25 | 0.61 | C#Cc1ccccc1Nc1nc(Nc2cc3c(cc2OC)CCN(C)C3)ncc1C(N)=O [Example 7-102, 4-[(2-ethynylphenyl)amino]-2-[(6-methoxy-2-methyl-1,2,3,4-tetrahydroisoquinolin-7-yl)amino]pyrimidine-5-carboxamide]
26 | 0.26 | COc1cc2c(cc1Nc1ncc(C(N)=O)c(Nc3ccccc3OC(C)C)n1)CN(C)CC2 [Example 7-111, 2-[(6-methoxy-2-methyl-1,2,3,4-tetrahydroisoquinolin-7-yl)amino]-4-({2-[(propan-2-yl)oxy]phenyl}amino)pyrimidine-5-carboxamide]
27 | 0.03 | CCOc1ccccc1Nc1nc(Nc2cc3c(cc2OC)CCN(C)C3)ncc1C(N)=O [Example 7-112, 4-[(2-ethoxyphenyl)amino]-2-[(6-methoxy-2-methyl-1,2,3,4-tetrahydroisoquinolin-7-yl)amino]pyrimidine-5-carboxamide]
28 | 0.13 | COc1cc2c(cc1Nc1ncc(C(N)=O)c(Nc3ccccc3SC(F)(F)F)n1)CN(C)CC2 [Example 7-113, 2-[(6-methoxy-2-methyl-1,2,3,4-tetrahydroisoquinolin-7-yl)amino]-4-({2-[(trifluoromethyl)sulfanyl]phenyl}amino)pyrimidine-5-carobxamide]
29 | 0.09 | COc1cc2c(cc1Nc1ncc(C(N)=O)c(Nc3ccccc3OC(F)F)n1)CN(C)CC2 [Example 7-114, 4-{[2-(difluoromethoxy)phenyl]amino}-2-[(6-methoxy-2-methyl-1,2,3,4-tetrahydroisoquinolin-7-yl)amino]pyrimidine-5-carboxamide]
30 | 0.2 | COc1cc2c(cc1Nc1ncc(C(N)=O)c(Nc3ccccc3OC(F)(F)F)n1)CN(C)CC2 [Example 7-115, 2-[(6-methoxy-2-methyl-1,2,3,4-tetrahydroisoquinolin-7-yl)amino]-4-{[2-(trifluoromethoxy)phenyl]amino} pyrimidine-5-carboxamide]
31 | 0.09 | COc1cc2c(cc1Nc1ncc(C(N)=O)c(Nc3ccccc3Br)n1)CNCC2 [Example 9-1, 4-[(2-bromophenyl)amino]-2-[(6-methoxy-1,2,3,4-tetrahydroisoquinolin-7-yl)amino]pyrimidine-5-carboxamide]
32 | 0.71 | COCCOCCOCCCN1CCc2cc(OC)c(Nc3ncc(C(N)=O)c(Nc4ccccc4Br)n3)cc2C1 [Example 9-5, 4-((2-bromophenyl)amino)-2-((6-methoxy-2-(3-(2-(2-methoxyethoxy)ethoxy)propyl)-1,2,3,4-tetrahydroisoquinolin-7-yl)amino)pyrimidine-5-carboxamide]
